In patent publication USRE32268E, “Therapeutic composition and method of therapeutically treating warm blooded animals therewith” (Strategic Medical Research Corp., priority 1983, dated 1986):
Where two headings read alike, the source gives them in different places.

Assays:
herpes simplex virus = assay: microbe, parasite or virus in culture; type: cell-based
[1] = test system: influenza A2 virus, Hong Kong strain; assay: antiviral potency against influenza A2 virus, Hong Kong strain, in tissue culture (baby hamster kidney cell line); type: cell-based; conditions: for log reduction at 3 µg/mL / log reduction at 10 µg/mL: read-out: Log Decrease in Infectivity of Virus Inoculum
Procedure: Well established methodology of the prior art was employed to determine the antiviral potency of compounds against influenza A2 virus, Hong Kong strain, in tissue cultures, employing the baby hamster kidney cell line (see R. L. Muldoon, L. Mezny and G. G. Jackson in Antimicrobial Agents and Chemotherapy 2:224-228, 1972). Virus infectivity was evaluated by both hemagglutination techniques and cytopathogenic effects, with identical results for each method. In Table 1 below, the virus-inhibiting effects of two low drug concentrations, 3 and 10 μg/ml, are depicted. Results are given as the log decrease in infectivity of the virus inoculum. A log decrease of 4.0 is the maximum obtainable, representing complete suppression of virus growth in the system. The virus inoculum of day 0 was always 100 times that amount required to kill 50% of the tissue culture cells (100 TCD50).

[2] = test system: influenza A2/Hong Kong disease; assay: suppression of influenza A2/Hong Kong disease in mice; type: in vivo; conditions: infected treated, 40 mg/Kg orally, at 8 days
influenza A/PR/8 = assay: prevention of death in mice ill with a lethal influenza A/PR/8 infection; type: in vivo; conditions: once 90 minutes before infection; for % of Population Protected / % Mortality: 8 days; for % Mortality: control 95; for Mortality Frequency at 8 Days: control 42/44
Procedure: The above medication was also examined for its capacity to prevent death in mice ill with a lethal influenza A/PR/8 infection. The drug was given subcutaneously at 3 dose levels, once 90 minutes before infection.

[3] = herpes simplex virus, tissue culture
[4] = 3 μg/ml, inoculum 100 TCD50, 4.0 is the maximum obtainable
[5] = 10 μg/ml, inoculum 100 TCD50, 4.0 is the maximum obtainable

NCCCO[C@H]1[C@H](O)[C@@H](CO)OC(O)[C@@H]1O (stereo partly drawn) [3-O--3'-n-propylamino-D-glucose, 3-O-3'-(n-propylamino)-D-glucopyranose]
IC100 (herpes simplex virus; read-out: Concentration required to exert 100% inhibition of herpes-induced plaque formation, herpes simplex virus, tissue culture): 20 µg/mL

CC(CN(C)C)O[C@H]1O[C@H](CO)[C@@H](O)[C@H](O)[C@H]1O (stereo partly drawn) [α-N,N--dimethylaminoisopropylglucoside, α-N,N-dimethylaminoisopropyl-D-glucoside]
Concentration required to exert 50% inhibition of herpes-induced plaque formation (herpes simplex virus; [3]): 10 µg/mL
Concentration required to exert 100% inhibition of herpes-induced plaque formation (herpes simplex virus; [3]): > 50 µg/mL
Log Decrease in Infectivity of Virus Inoculum [1, 4]: 1.5 log
Log Decrease in Infectivity of Virus Inoculum [1, 5]: 2.5 log

CN1CCC(O[C@H]2[C@H](O)[C@@H](CO)OC(O)[C@@H]2O)CC1 (stereo partly drawn) [3-O--4'-(N--methylpiperidyl)-D-glucose, 3-O-4'-(N-methylpiperidyl)-D-glucopyranose]
log reduction at 3 µg/mL [1]: 2.5
log reduction at 10 µg/mL [1]: 3.5

CN(C)CCO[C@H]1[C@H](O)[C@@H](CO)OC(O)[C@@H]1O (stereo partly drawn) [3-O-2'-(N',N'-dimethylaminoethyl)-D-glucopyranose]
log reduction at 3 µg/mL [1, 4]: 2.5
log reduction at 10 µg/mL [1, 5]: 3.5

CN(C)CCCO[C@H]1[C@H](O)[C@@H](CO)OC(O)[C@@H]1O (stereo partly drawn) [3-O-3'-(N',N'-dimethylamino-n-propyl)-D-glucopyranose]
relative antiviral potency (herpes simplex virus): the most potent derivative
Frequency of Normal Lungs (<170 mg) ([2]; normal 12/21, infected control 1/21): 13/21
Average Lung Weight ([2]; beginning 24 hours post-infection, 50% of drug 1,2-acetone-blocked, normal 160, infected control 258): 177 mg
% Disease Suppression ([2]; beginning 24 hours post-infection, lung weight): 82%
relative antiviral potency ([1]; influenza A2, among tested derivatives): the most potent effect
log reduction at 3 µg/mL [1]: 3.2
log reduction at 10 µg/mL [1]: 4
% of Population Protected (influenza A/PR/8; 10 mg/Kg subcutaneously): 14%
% Mortality (influenza A/PR/8; 10 mg/Kg subcutaneously): 81%
Mortality Frequency at 8 Days (influenza A/PR/8; 10 mg/Kg subcutaneously): 18/22
% of Population Protected (influenza A/PR/8; 40 mg/Kg subcutaneously): 23%
% Mortality (influenza A/PR/8; 40 mg/Kg subcutaneously): 72%
Mortality Frequency at 8 Days (influenza A/PR/8; 40 mg/Kg subcutaneously): 16/22
% of Population Protected (influenza A/PR/8; 160 mg/Kg subcutaneously): 50%
% Mortality (influenza A/PR/8; 160 mg/Kg subcutaneously): 45%
Mortality Frequency at 8 Days (influenza A/PR/8; 160 mg/Kg subcutaneously): 10/22

CC(CO[C@H]1[C@H](O)[C@@H](CO)OC(O)[C@@H]1O)CN(C)C (stereo partly drawn) [3-O-3'-(2',N',N'-trimethylamino-n-propyl)-D-glucopyranose]
log reduction at 3 µg/mL [1, 4]: 2.4
log reduction at 10 µg/mL [1, 5]: 3

CC(CN(C)C)OC[C@H]1OC(O)[C@H](O)[C@@H](O)[C@H]1O (stereo partly drawn) [6-O-2'-(N',N'-dimethylaminopropyl)-D-galactose]
Log Decrease in Infectivity of Virus Inoculum [1, 4]: 0.1 log
Log Decrease in Infectivity of Virus Inoculum [1, 5]: 0.5 log

CN(C)CCCOC[C@H]1OC(O)[C@H](O)[C@@H](O)[C@H]1O (stereo partly drawn) [6-O-3'-(N',N'-dimethylamino-n-propyl)-D-galactopyranose]
log reduction at 3 µg/mL [1, 4]: 1
log reduction at 10 µg/mL [1, 5]: 2

CCN(CC)CCO[C@H]1[C@H](O)[C@@H](CO)OC(O)[C@@H]1O (stereo partly drawn) [3-O-2'-(N',N'-diethylaminoethyl)-D-glucose]
log reduction at 3 µg/mL [1, 4]: 0.5
log reduction at 10 µg/mL [1, 5]: 1

CCN(CC)CCOC1C(C2COC(C)(C)O2)OC2OC(C)(C)OC21 [1,2:5,6-di-O-isopropylidene-3-O-2'-(N',N'-diethylaminoethyl)-D-glucofuranose]
Concentration required to exert 50% inhibition of herpes-induced plaque formation (herpes simplex virus; [3]): 6 µg/mL
Concentration required to exert 100% inhibition of herpes-induced plaque formation (herpes simplex virus; [3]): 30 µg/mL

CN1CCC(O[C@@H]2[C@H]3OC(C)(C)O[C@H]3O[C@@H]2[C@H]2COC(C)(C)O2)CC1 [1,2,5,6-di-O--isopropylidene-3-O--4'-(N--methyl-piperidyl)-D-glucofuranose]
IC50 (herpes simplex virus; read-out: Concentration required to exert 50% inhibition of herpes-induced plaque formation, herpes simplex virus, tissue culture): < 3 µg/mL

3-O-2'-(N',N'-dimethylaminopropyl)-D-glucopyranose
Concentration required to exert 50% inhibition of herpes-induced plaque formation (herpes simplex virus): 3 µg/mL
Concentration required to exert 100% inhibition of herpes-induced plaque formation (herpes simplex virus): > 20 µg/mL
Log Decrease in Infectivity of Virus Inoculum [1, 4]: 1.0 log
Log Decrease in Infectivity of Virus Inoculum [1, 5]: 2.0 log
